Measured values reported in US20080125432A1 (Devgen NV, priority 2004, published 2008).

Test system: Male mice (NRMI)
Assay: In vivo telemetry ECG recording in mice, intraperitoneal application
Details: consecutive dosing i.p. (3-15 μM/kg), n=5
Protocol: Male mice (NRMI) were anesthetized with a gas mixture of isoflurane, nitrous oxide and oxigen. Leads connected to a telemetry transmitter (TA10EA-F20, DSI, St. Paul, USA) were fixed by suture in the xiphoid and ventral neck region. The telemetry transmitter was placed under the skin on the back. Wounds were closed in layers and the animals were allowed to recover for at least 1 week.
On the day of the experiment the animals receive consecutive doses of vehicle i.p. at 60 min dosing intervals. ECG tracings (12 s duration) was recorded using the Data Sciences A.R.T. system. After completion of the experiment ECGs were analyzed automatically by Data Sciences ECG software (DSI, St. Paul, USA). QT and QRS intervals were measured manually in the stored ECGs. QTc was calculated from the QT interval and the corresponding heart rate using Bazett's formula. Heart rate was taken from the online analysis, given by the DSI Labpro and DSI A.R.T. systems (DSI, St. Paul, USA). Finally, ECG intervals were transferred to an Excel spreadsheet, checked for plausibility, and converted into 15 min averages.

For COc1ccccc1Nc1nc(C)c(C(=O)N[C@H]2CCC[C@@H]2OCc2ccccc2)s1 [Compound 68, 2-(2-methoxy-phenylamino)-4-methyl-thiazole-5-carboxylic acid (1S,2S)-2-(benzyloxycyclopent-1-yl) amide], the “QT and QTc intervals in the mouse ECG” value (60 min dosing intervals) was “significant, dose-dependent but late onset prolongation”, the Heart rate was “minor and not significant decrease” and the Locomotor activity was “reproducible rise after each of the subsequent injections”. For the same compound, the “PQ and QRS in the mouse ECG” value was “did not show dose-dependent changes”.
